Experimental data from patent US9701959B2, “High throughput screen for biologically active polypeptides” (Invenra Inc., priority 2012, dated 2017).
Ends that are not written are not given here.

What was measured:
E. coli MG1655 = assay: Minimal Inhibitory Concentration (MIC) in E. coli, Alamar Blue, hit validation; type: cell-based; conditions: MIC at 18 hrs in E. coli; overnight at 35° C., triplicate
Protocol: Equipment: • Absorption and fluorescence plate reader—Tecan Safire • CO2 Incubator
Reagents: • Six chemically synthesized peptides—Biosynthesis Inc. • E. coli MG1655 (ATCC) • LB media (Sigma-Aldrich) • Alamar Blue assay kit (Life Tech)
3) Start an overnight culture of E. coli MG1655 in 5 mL of LB and grow at 37° C. with shaking at 200 rpm. 4) In the morning dilute overnight culture to OD600=0.00075 in 10 mL LB+1 mL Alamar Blue Stain. 5) Make seven (7), 1:2 serial dilutions of each peptide starting at […] in a final volume of 70 μL of PBS. 6) Add 20 μL of serial dilution of peptides in triplicate to a white small volume 96-well plate. Add 20 μl of PBS alone to the 8th well. 7) Add 120 μL of E. coli/Alamar blue dilution to each of the test wells. 8) Incubate overnight (18 hrs) at 35° C.

[1] = tested on: NF-κB-Jurkat cells (GFP reporter construct for NF-kappa-B); assay: Single bead bioactivity testing in 1536-well microtiter plate (GFP fluorescence); type: cell-based; conditions: 1 and 2 beads per well, 4,800 cells per well, 18 hours at 37 C
Protocol: Equipment: • Cell culture incubator (Fisher Scientific) • Microplate reader (Tecan Safire) • Black, clear bottom, 1536-well microtiter plate (Corning)
1) Dilute NF-κB-Jurkat cells to 4×10^6 cells/ml using the supplemented RPMI 1640 growth media.
2) Prepare the 1536 well for the following layout:
3) Add 7. μl of supplemented RMPI 1640 media to all wells labeled “M” in the plate layout above.
4) Create the following cell master mix:
5) Add 3 μl of the cell master mix to the wells labeled “A” and “B” so that when the test and control beads are added the final number of cells is 4,800 per well.
6) Dilute the TNF-bead and Control-beads in supplemented RPMI 1640 to 1-2 beads per 2 μl.
7) Add 2 μl of TNF-beads to the wells of the plate labeled “A” and add 2 μl of the control-beads to the wells of the plate labeled “B”.
8) Incubate the plate for 18 hours at 37 C and 5% CO2.
9) Measure the GFP fluorescence of each well using the Tecan Safire plate reader.
The experiment was performed to determine if a single bead could be used to screen for activity of a protein that induces a cell-reporter in a microtiter plate. 1536 well plates were used to decrease the volume in which the assay was performed. Control beads consisting of a scFv antibody fragment were generated using the same protocol as the tested TNF-beads. The control beads were used to establish a baseline signal for the assay. […]

Molecule | Ave MIC (E. coli MG1655) [µM] | GFP signal relative to baseline (control beads) [1]
GIGALIKVLTTGLPMLISWIKRKRNK [Hit 2] | 14 | 
GIGATVKVLSTGLRFLISWIKRKRKY [Cont 1, reference compound] | >30 | 
TNF-beads: His-tag, spacer, TEV cleavage site, spacer, and the soluble form of TNF-alpha, SEQ ID NO: 14, on beads |  | increased signal over the baseline
GIGAIAKVLSTGLPRLISWIKGKRIR [Cont 2, reference compound] | 15 | 
CC[C@H](C)[C@H](NC(=O)CN)C(=O)NCC(=O)N[C@@H](C)C(=O)N[C@H](C(=O)N[C@@H](CC(C)C)C(=O)N[C@@H](CCCCN)C(=O)N[C@H](C(=O)N[C@@H](CC(C)C)C(=O)N[C@H](C(=O)N[C@H](C(=O)NCC(=O)N[C@@H](CC(C)C)C(=O)N1CCC[C@H]1C(=O)N[C@H](C(=O)N[C@@H](CC(C)C)C(=O)N[C@H](C(=O)N[C@@H](CO)C(=O)N[C@@H](Cc1c[nH]c2ccccc12)C(=O)N[C@H](C(=O)N[C@@H](CCCCN)C(=O)N[C@@H](CO)C(=O)N[C@@H](CCCCN)C(=O)N[C@@H](CCCNC(=N)N)C(=O)N[C@@H](CCC(N)=O)C(=O)N[C@@H](CCCCN)C(=O)O)[C@@H](C)CC)[C@@H](C)CC)[C@@H](C)O)[C@@H](C)O)[C@@H](C)O)C(C)C)C(C)C [Hit 1] | 12 | 
GIGAVLKVLGTGLPALISWIKFKRFP [Cont 3, reference compound] | >30 | 
GIGAWTKVLTTGLPGLISWIKRKRLR [Hit 3] | 20 | 
